Laboratory results reported in patent publication US20240300886A1, “ARYLCYCLOHEXYLAMINE DERIVATIVES AND THEIR USE IN THE TREATMENT OF PSYCHIATRIC DISORDERS” (GILGAMESH PHARMACEUTICALS, INC., priority 2021, published 2024).

Key:
[1] = test system: immobility time in the FST; assay: Forced swim test (FST) in rats; format: in vivo, Sprague-Dawley rats; conditions: s.c., 23.5-h pre-treatment time
Protocol: Disclosed compounds were tested in the forced swim test (FST) in rats with a 23.5-h pre-treatment time according to the following procedures.
Animals. Male Sprague-Dawley rats, aged 8-10 weeks, were used in the experiments. Animals were housed in groups of 2 under controlled temperature (22±3° C.) and relative humidity (30-70%) conditions, with 12-hour light/dark cycles, and with ad libitum food and water. All efforts were made to minimize suffering.
Drugs and Drug Administration. Test compounds, saline vehicle, and the positive control desipramine were administered subcutaneously (s.c.), with doses calculated based on the freebase. Normal saline was used as the vehicle for compounds provided as the HCl salt, while saline acidified with 1-2 molar equivalents of HCl was used as the vehicle for compounds provided as the freebase (to form the soluble HCl salt in situ). All compounds were administered at a volume of 5 mL/kg. Test compounds and vehicle were administered 0.5 h after the start of the training swim (Swim 1) and 23.5 h before the test swim (Swim 2). […]
Behavioral scoring was conducted by observers who were blind to the treatment groups. Animals were continuously observed during Swim 2 and the total time spent engaging in the following behaviors was recorded: immobile, swimming, and climbing. […]

[2] = Stability in liver microsomes (Example 21), SD rat; format: in vitro ADME; conditions: male, pH 7.4, 0.5 mg/mL protein
Protocol: (§1) General Procedure. Briefly, test compounds (final concentration 1 μM) were incubated in duplicate with liver microsomes from male animals of the indicated species (final protein concentration 0.5 mg/mL) in 50 mM sodium phosphate buffer (pH 7.4) with or without NADPH (1 mM). Total incubation volume was 500 μL. At 0, 5, 15, 30, and 60 min, aliquots of 50 μL were withdrawn, quenched with acetonitrile (150 μL), and analyzed for parent compound remaining using a fit-for-purpose LC-MS/MS method. Intrinsic clearance and half-life were calculated. Clearance values below zero were rounded to zero.

[3] = Oral bioavailability in minipigs (plasma PK); format: in vivo, Bama minipigs; conditions: for AUC(0-inf): male, Bama
Protocol: Animals. Male Bama minipigs were used in these studies. Animals were randomly assigned to treatment groups and were fasted overnight before dosing.
(§2) Drugs. Compound 2R was dissolved in a vehicle consisting of normal saline. It was then administered intravenously (iv) or orally (po) at a dose of 1 mg/kg (calculated based on freebase) and at a volume of 2 mL/kg body weight (n=3 per dosing route).
(§3) Sample Collection and Bioanalysis. Blood samples (approximately 500 μL) were collected under manual restraint from the cephalic vein at 0.08, 0.25, 0.5, 1, 2, 4, 8, and 24 h ([…]) into K2EDTA tubes and placed on wet ice. Immediately after blood collection, plasma was harvested by centrifugation at 3,000 g for 5 min at 4° C. within 15 minutes of collection and subsequently stored at −70±10° C. until bioanalysis. For bioanalysis, for diluted plasma samples, an aliquot of 2 μL sample was diluted with 18 μL blank matrix and the dilution factor was 10. For non-diluted samples, an aliquot of 20 μL sample was added with 300 μL internal standard (diclofenac, 60 ng/mL) in acetonitrile. The mixture was vortexed for 10 minutes and centrifuged at 5,800 rpm for 10 minutes. 90 μL of supernatant was transferred to a 96 well plate and analyzed with a fit-for-purpose LC-MS/MS method, with authentic samples of each analyte used for calibration and identification.
Data Analysis. Pharmacokinetic parameters were estimated using the non-compartmental analysis tool of Phoenix® WinNonlin software (Ver 8.2).

[4] = Stability in liver microsomes (Example 21), Gottingen minipig; format: in vitro ADME; conditions: male, pH 7.4, 0.5 mg/mL protein
Protocol: as §1

[5] = Oral bioavailability in monkeys (plasma PK); format: in vivo, Cynomolgus monkeys; conditions: for AUC(0-inf): male, cynomolgus monkey
Protocol: Animals. Male Cynomolgus monkeys were used in these studies. Animals were randomly assigned to treatment groups and were fasted overnight before dosing.
as §2, §3
Data Analysis. Pharmacokinetic parameters were estimated using the non-compartmental analysis tool of Phoenix® a WinNonlin software (Ver 8.2).

[6] = Stability in liver microsomes (Example 21), CD-1 mouse; format: in vitro ADME; conditions: male, pH 7.4, CD-1 Mouse liver microsomes, 0.5 mg/mL protein
Protocol: as §1

| Structure (SMILES) | immobility time in the FST relative to vehicle [1] | microsomal CLint at 1 μM [2] | AUC(0-inf) ([3]; minipig plasma, 1 mg/kg iv, read-out: AUC0-inf (iv) (converted)) | AUC(0-inf) ([3]; minipig plasma, 1 mg/kg po, read-out: AUC0-inf (po) (converted)) | F ([3]; minipig plasma, 1 mg/kg) | oral bioavailability (in words) ([3]; minipigs, 1 mg/kg) | microsomal CLint at 1 μM [4] | AUC(0-inf) ([5]; monkey plasma, 1 mg/kg iv, read-out: AUC0-inf (iv) (converted)) | AUC(0-inf) ([5]; monkey plasma, 1 mg/kg po, read-out: AUC0-inf (po) (converted)) | F ([5]; monkey plasma, 1 mg/kg) | oral bioavailability (in words) ([5]; monkeys, 1 mg/kg) | microsomal CLint at 1 μM [6] |
| --- | --- | --- | --- | --- | --- | --- | --- | --- | --- | --- | --- | --- |
| N[C@]1(c2ccc(F)cc2)CCCCC1=O [Compound 1S, (S)-2-amino-2-(4-fluorophenyl)cyclohexan-1-one] | reduced immobility time |  |  |  |  |  |  |  |  |  |  |  |
| CN[C@@]1(c2ccc(F)cc2)CCCCC1=O [Compound 2R, (R)-2-(4-fluorophenyl)-2(methylamino)cyclohexan-1-one] | reduced immobility time | 16.2 µL/min/mg | 566 ng·h/mL | 242 ng·h/mL | 42.7% | good | 16.4 µL/min/mg | 964 ng·h/mL | 259 ng·h/mL | 27% | moderate |  |
| CN[C@]1(c2ccc(F)cc2)CCCCC1=O [Compound 2S, (S)-2-(4-fluorophenyl)-2-(methylamino)cyclohexan-1-one] |  | 14.1 µL/min/mg |  |  |  |  | 20.3 µL/min/mg |  |  |  |  | 3.5 µL/min/mg |
